# Measurements reported in BigSolDB 2.1.
compound,measurement,setting,value
O.O=C([O-])[C@H](O)[C@@H](O)[C@H](O)[C@H](O)CO.O=C([O-])[C@H](O)[C@@H](O)[C@H](O)[C@H](O)CO.[Ca+2],solubility (mole fraction),"in acetonitrile, 279.15 K",4.28e-06
same,solubility (mole fraction),"in acetonitrile, 283.15 K",4.56e-06
same,solubility (mole fraction),"in acetonitrile, 288.15 K",5.33e-06
same,solubility (mole fraction),"in acetonitrile, 293.15 K",7.75e-06
same,solubility (mole fraction),"in acetonitrile, 298.15 K",1.02e-05
same,solubility (mole fraction),"in acetonitrile, 303.15 K",1.24e-05
same,solubility (mole fraction),"in acetonitrile, 308.65 K",1.64e-05
same,solubility (mole fraction),"in acetonitrile, 313.65 K",1.99e-05
same,solubility (mole fraction),"in acetonitrile, 318.15 K",2.39e-05
same,solubility (mole fraction),"in ethanol, 279.15 K",9.52e-06
same,solubility (mole fraction),"in ethanol, 283.15 K",1.06e-05
same,solubility (mole fraction),"in ethanol, 288.15 K",1.29e-05
same,solubility (mole fraction),"in ethanol, 293.15 K",1.51e-05
same,solubility (mole fraction),"in ethanol, 298.15 K",1.73e-05
same,solubility (mole fraction),"in ethanol, 303.15 K",1.99e-05
same,solubility (mole fraction),"in ethanol, 308.65 K",2.32e-05
same,solubility (mole fraction),"in ethanol, 313.65 K",2.75e-05
same,solubility (mole fraction),"in ethanol, 318.15 K",3.04e-05
same,solubility (mole fraction),"in methanol, 279.15 K",1.15e-05
same,solubility (mole fraction),"in methanol, 283.15 K",1.26e-05
same,solubility (mole fraction),"in methanol, 288.15 K",1.46e-05
same,solubility (mole fraction),"in methanol, 293.15 K",1.77e-05
same,solubility (mole fraction),"in methanol, 298.15 K",1.95e-05
same,solubility (mole fraction),"in methanol, 303.15 K",2.34e-05
same,solubility (mole fraction),"in methanol, 308.65 K",2.65e-05
same,solubility (mole fraction),"in methanol, 313.65 K",2.99e-05
same,solubility (mole fraction),"in methanol, 318.15 K",3.5e-05
same,solubility (mole fraction),"in n-propanol, 279.15 K",5.01e-06
same,solubility (mole fraction),"in n-propanol, 283.15 K",5.83e-06
same,solubility (mole fraction),"in n-propanol, 288.15 K",7.78e-06
same,solubility (mole fraction),"in n-propanol, 293.15 K",1.04e-05
same,solubility (mole fraction),"in n-propanol, 298.15 K",1.33e-05
same,solubility (mole fraction),"in n-propanol, 303.15 K",1.62e-05
same,solubility (mole fraction),"in water, 279.65 K",0.000997
same,solubility (mole fraction),"in water, 284.65 K",0.00108
same,solubility (mole fraction),"in water, 289.15 K",0.0012
same,solubility (mole fraction),"in water, 294.15 K",0.00129
same,solubility (mole fraction),"in water, 299.15 K",0.00146
same,solubility (mole fraction),"in water, 303.15 K",0.00165
same,solubility (mole fraction),"in water, 308.15 K",0.00199
same,solubility (mole fraction),"in water, 313.15 K",0.00227
same,solubility (mole fraction),"in water, 318.15 K",0.00269
same,solubility (mole fraction),"in water, 323.15 K",0.00311
